According to US5223526A, “Pyrazole carboxanilide fungicides and use” (Monsanto Company, priority 1992, dated 1993):

Key:
Botrytis cinerea [1] = assay: Vine grey mold (grape berries); format: in vivo; details: average of six berries, 7-10 days; for pest or weed control at 50 ppm: grape berries treated with 50 ppm, read-out: % DISEASE CONTROL 50 ppm; for pest or weed control at 200 ppm: grape berries treated with 200 ppm, read-out: % DISEASE CONTROL 200 ppm
Summary of the method: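 Preventive berry test: compound at 50 or 200 ppm (acetone/water, 0.05% Tween 20) applied one day before inoculation with 10^6 spores/mL Botrytis conidia. After 7-10 days at 20 °C under 12 h light, infected surface area rated; disease control expressed as percent reduction from control mean; repeated-test values averaged.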

Botrytis cinerea [2] = assay: Eggplant grey mold; format: in vivo; design: scale not given here; details: inoculated 24 h later, rated after 3-4 days; for Disease Control Rating at 20 ppm: eggplant sprayed with 20 ppm; for Disease Control Rating at 100 ppm: eggplant sprayed with 100 ppm; for Disease Control Rating at 500 ppm: eggplant sprayed with 500 ppm
Summary of the method: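 Protective test: compound formulations (2:3 acetone:water, 0.5% Tween 20; 500, 100 or 20 ppm) sprayed on 14-18-day-old plants, with spore inoculum (4×10^6 spore/mL) applied a day later. Disease control rated on Botrytis lesions after 3-4 days at 23 °C and 100% humidity.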

Rhizoctonia solani = assay: Rice sheath blight; format: in vivo; design: scale not given here; details: inoculated two days later, rated after 7 days, average of five plants; for Disease Control Rating at 0.5 mg/mL: foliage and soil sprayed with 0.5 mg/mL; for Disease Control Rating at 0.02 mg/mL: foliage and soil sprayed with 0.02 mg/mL; for Disease Control Rating at 0.1 mg/mL: foliage and soil sprayed with 0.1 mg/mL
Summary of the method: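 Preventive test: R. solani inoculum on rice grain was applied at the plant base two days after spraying foliage and soil with Compound A (0.5, 0.1 or 0.02 mg/mL, water/acetone/Tween 20). Plants aged 11–15 days stood in flood trays; after 7 days at 25 °C and high humidity, disease control was rated against untreated plants, five plants averaged.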

succinate dehydrogenase = target: T1, succinate dehydrogenase (Botrytis cinerea, UniProt A0A384J5E4+A0A384J8V8+A0A384JHJ5); assay: Enzyme inhibition: succinate dehydrogenase activity in Botrytis cinerea mitochondria (DCPIP reduction); format: biochemical; details: concentration required to inhibit the rate of DCPIP reduction by 50%; Botrytis cinerea isolate Nick mitochondria; read-out: I50 (μM conc.)
T1 construct: succinate-DCPIP reductase assay with KCN
Summary of the method: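 DCPIP (45 μM) reduction at 600 nm tracked with 17 mM succinate, 1 mM KCN and 50 mM potassium phosphate, pH 7.2. Compounds were added in acetone (final 1% v/v), and Botrytis cinerea isolate Nick mitochondrial fraction initiated the reaction. Rates minus endogenous activity gave percentage inhibition, plotted semilog against concentration to derive I50 (μM).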

T1 sequence (A0A384J5E4 1-300): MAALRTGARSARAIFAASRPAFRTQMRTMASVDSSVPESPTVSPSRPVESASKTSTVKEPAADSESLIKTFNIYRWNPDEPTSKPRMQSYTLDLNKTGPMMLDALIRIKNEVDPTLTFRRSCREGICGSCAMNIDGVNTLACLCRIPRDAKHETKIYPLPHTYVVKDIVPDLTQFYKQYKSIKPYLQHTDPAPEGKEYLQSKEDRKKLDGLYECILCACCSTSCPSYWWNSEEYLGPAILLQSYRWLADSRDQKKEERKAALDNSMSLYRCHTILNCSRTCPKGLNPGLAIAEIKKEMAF
T1 sequence (A0A384J8V8 1-189): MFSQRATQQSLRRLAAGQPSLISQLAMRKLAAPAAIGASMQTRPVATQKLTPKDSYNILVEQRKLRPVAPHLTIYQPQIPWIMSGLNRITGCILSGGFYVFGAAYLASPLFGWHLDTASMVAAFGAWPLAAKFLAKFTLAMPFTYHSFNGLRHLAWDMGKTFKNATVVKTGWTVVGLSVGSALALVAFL
T1 sequence (A0A384JHJ5 1-192): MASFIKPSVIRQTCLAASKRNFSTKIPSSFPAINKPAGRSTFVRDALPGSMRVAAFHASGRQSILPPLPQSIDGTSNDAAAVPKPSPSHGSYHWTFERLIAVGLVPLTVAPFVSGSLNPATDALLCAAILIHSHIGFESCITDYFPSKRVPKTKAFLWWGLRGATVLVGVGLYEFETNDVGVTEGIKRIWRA
T1 sequence (A0A384K456 1-647 partner): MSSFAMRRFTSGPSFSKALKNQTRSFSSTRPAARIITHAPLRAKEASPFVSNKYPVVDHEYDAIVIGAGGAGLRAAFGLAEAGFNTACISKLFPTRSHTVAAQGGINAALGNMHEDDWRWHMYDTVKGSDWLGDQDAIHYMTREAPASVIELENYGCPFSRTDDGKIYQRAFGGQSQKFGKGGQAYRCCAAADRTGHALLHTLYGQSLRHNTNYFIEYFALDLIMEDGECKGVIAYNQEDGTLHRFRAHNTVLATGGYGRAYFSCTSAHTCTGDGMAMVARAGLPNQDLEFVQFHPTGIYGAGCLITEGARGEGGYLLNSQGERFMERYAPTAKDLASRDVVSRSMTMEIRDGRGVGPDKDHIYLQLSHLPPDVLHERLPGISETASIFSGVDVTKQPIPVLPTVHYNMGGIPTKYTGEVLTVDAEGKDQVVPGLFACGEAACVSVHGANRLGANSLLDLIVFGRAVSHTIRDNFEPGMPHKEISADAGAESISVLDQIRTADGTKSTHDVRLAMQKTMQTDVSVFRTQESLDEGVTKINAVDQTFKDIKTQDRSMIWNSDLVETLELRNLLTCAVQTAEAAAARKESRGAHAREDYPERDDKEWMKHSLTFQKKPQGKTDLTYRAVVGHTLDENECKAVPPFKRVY

Cc1cc(C)c(C2CCCC2)c(NC(=O)c2cn(C)nc2C(F)(F)F)c1 [Example 31, 1H-pyrazole-4-carboxamide, N-(2-cyclopentyl-3,5-dimethylphenyl)-1-methyl-3-(trifluoromethyl)-]
pest or weed control at 50 ppm (Botrytis cinerea [1]): 0%
pest or weed control at 200 ppm (Botrytis cinerea [1]): 23%
Disease Control Rating at 20 ppm (Botrytis cinerea [2]): 0
Disease Control Rating at 100 ppm (Botrytis cinerea [2]): 0
Disease Control Rating at 500 ppm (Botrytis cinerea [2]): 0
Disease Control Rating at 0.5 mg/mL (Rhizoctonia solani): 1
IC50 (succinate dehydrogenase): 0.068 µM

COc1ccc(C2CCCCC2)c(NC(=O)c2cn(C)nc2C(F)(F)F)c1 [Example 32, 1H-pyrazole-4-carboxamide, N-(2-cyclohexyl-5-methoxyphenyl)-1-methyl-3-(trifluoromethyl)-]
pest or weed control at 50 ppm (Botrytis cinerea [1]): 6%
pest or weed control at 200 ppm (Botrytis cinerea [1]): 5%
Disease Control Rating at 20 ppm (Botrytis cinerea [2]): 0
Disease Control Rating at 100 ppm (Botrytis cinerea [2]): 1
Disease Control Rating at 500 ppm (Botrytis cinerea [2]): 2
Disease Control Rating at 0.5 mg/mL (Rhizoctonia solani): 0
IC50 (succinate dehydrogenase): 0.11 µM

CC(=C1CCCC1)c1ccccc1NC(=O)c1cn(C)nc1C(F)(F)F [Example 33, 1H-pyrazole-4-carboxamide, N-[2-(1-cyclopentylideneethyl)phenyl]-1-methyl-3-(trifluoromethyl)-]
pest or weed control at 50 ppm (Botrytis cinerea [1]): 34%
pest or weed control at 200 ppm (Botrytis cinerea [1]): 41%
Disease Control Rating at 20 ppm (Botrytis cinerea [2]): 1
Disease Control Rating at 100 ppm (Botrytis cinerea [2]): 1
Disease Control Rating at 500 ppm (Botrytis cinerea [2]): 2
Disease Control Rating at 0.02 mg/mL (Rhizoctonia solani): 1
Disease Control Rating at 0.1 mg/mL (Rhizoctonia solani): 1
Disease Control Rating at 0.5 mg/mL (Rhizoctonia solani): 3
IC50 (succinate dehydrogenase): 0.0014 µM

C=C(c1ccccc1NC(=O)c1cn(C)nc1C(F)(F)F)C1CCCC1 [Example 34, 1H-pyrazole-4-carboxamide, N-[2-(1-cyclopentylethenyl)phenyl]-1-methyl-3-(trifluoromethyl)-]
pest or weed control at 50 ppm (Botrytis cinerea [1]): 44%
pest or weed control at 200 ppm (Botrytis cinerea [1]): 11%
Disease Control Rating at 20 ppm (Botrytis cinerea [2]): 0
Disease Control Rating at 100 ppm (Botrytis cinerea [2]): 2
Disease Control Rating at 500 ppm (Botrytis cinerea [2]): 2
Disease Control Rating at 0.02 mg/mL (Rhizoctonia solani): 2
Disease Control Rating at 0.1 mg/mL (Rhizoctonia solani): 3
Disease Control Rating at 0.5 mg/mL (Rhizoctonia solani): 3
IC50 (succinate dehydrogenase): 0.0059 µM

Cn1cc(C(=O)Nc2ccccc2OC2(C)CCCC2)c(C(F)F)n1 [Example 35, 1H-pyrazole-4-carboxamide, 3-(difluoromethyl)-1-methyl-N-[2-(1-methylcyclopentyloxy)phenyl]-]
pest or weed control at 50 ppm (Botrytis cinerea [1]): 42%
pest or weed control at 200 ppm (Botrytis cinerea [1]): 46%
Disease Control Rating at 20 ppm (Botrytis cinerea [2]): 2
Disease Control Rating at 100 ppm (Botrytis cinerea [2]): 3
Disease Control Rating at 500 ppm (Botrytis cinerea [2]): 3
Disease Control Rating at 0.02 mg/mL (Rhizoctonia solani): 2
Disease Control Rating at 0.1 mg/mL (Rhizoctonia solani): 3
Disease Control Rating at 0.5 mg/mL (Rhizoctonia solani): 3
IC50 (succinate dehydrogenase): 0.012 µM

Cn1cc(C(=O)Nc2ccccc2OC2(C)CCCC2)c(C(F)(F)F)n1 [Example 36, 1H-pyrazole-4-carboxamide, 1-methyl-N-[2-(1-methylcyclopentyloxy)phenyl]-3-(trifluoromethyl)-]
pest or weed control at 50 ppm (Botrytis cinerea [1]): 14%
pest or weed control at 200 ppm (Botrytis cinerea [1]): 38%
Disease Control Rating at 500 ppm (Botrytis cinerea [2]): 0
Disease Control Rating at 0.5 mg/mL (Rhizoctonia solani): 0
IC50 (succinate dehydrogenase): 0.021 µM
